# Experimental data: patent US8338414B2, “Immunosuppressive agent and anti-tumor agent comprising heterocyclic compound as active ingredient” (Zenyaku Kogyo KabushikiKaisha, priority 2005, dated 2012)
# Legend:
# Daudi cells = experiment: Therapeutic action on human B lymphoma xenografted model; type: in vivo, mouse; settings: NOD/SCID mice, Daudi subcutaneous, 400 mg/kg oral after day 20
# Method: Daudi cells (1×10^7 cells/mL) cultured in RPMI 1640 medium (containing 10% fetal bovine serum, 10 mM HEPES, 1 mM pyruvic acid, 4.5 g/L glucose, 100 units/mL penicillin, and 0.1 mg/mL streptomycin) were implanted subcutaneously in the chests of 8 week-old NOD/SCID mice. After day 20 when the tumor had grown to the volume of about 800 mm^3, Compound 4 (400 mg/kg) was administered orally.
# [1] = test system: collagen-induced arthritis; experiment: Collagen-induced arthritis inhibitory action; type: in vivo, mouse; settings: DBA1 mice
# Method: Bovine type II collagen suspended in Freund's complete adjuvant was intradermally administered to the base of tail of DBA1 male mice (7 weeks old, purchased from Charles River Laboratories Japan Inc.) on day 1 and day 21. Then, from day 28 when 50% of the mice developed arthritis, the test substances suspended in 0.5% hydroxypropylcellulose (HPC) were orally administered on consecutive days. Here, the efficacy was evaluated by scoring the arthritis. Specifically, for each paw, the degree of arthritis was evaluated according to: no symptoms: 0; redness or swelling of one joint: 1; redness or swelling for two or more joints: 2; redness or swelling over the entire paw: 3; and maximum redness or swelling over the entire paw: 4.
# [2] = test system: human peripheral blood mononuclear cells; experiment: Proliferation inhibition assay for human peripheral blood mononuclear cells; type: cell-based; settings: Homo sapiens, 72 h; PBMC, anti-CD3 and anti-CD28 antibody, 3 days, Alamar Blue
# Procedure, shortened: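 PBMC from healthy donors (1×10^5 cells/mL) in RPMI 1640 with 10% FBS were stimulated with plate-bound anti-CD3 plus anti-CD28 (1 μg/mL). Serially diluted compounds were added and cells were cultured 3 days at 37 °C. Alamar Blue was then added for 1 day and fluorescence was read at ex 530/em 590 nm.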
smiles,measurement,setting,value
"FC(F)c1nc2ccccc2n1-c1nc(N2CCOCC2)nc(N2CCOCC2)n1 [Compound 4, 2-(2-Difluoromethylbenzimidazol-1-yl)-4,6-dimorpholino-1,3,5-triazine]",increase in tumor volume,Daudi cells,inhibited
same,"arthritis score, difference versus control group","[1]; 50 mg/kg oral, after day 44 (conditions exacerbated after day 40)",no significant difference was recognized in comparison with the control group
same,"arthritis score, efficacy versus control group","[1]; 50 or 100 mg/kg oral, after day 30, Dunnett's test P<0.05",a statistically significant efficacy was recognized
same,progression of collagen-induced arthritis (arthritis score),[1]; oral on consecutive days from day 28,inhibited the progression of the collagen-induced arthritis in a dose-dependent manner
same,IC50,[2],312 nM
